Where “and” joins values, the source holds several entries; their conditions need not be identical. Equal entries are not always repeated. Toxic doses and inconclusive results are not listed. Rule as the data show it: active = T/C of 150% or more; inactive = T/C below 125%.
Test system: L1210 leukemia ip in BDF1 mice, survival T/C
Assay: NCI In Vivo Anticancer Drug Screen. Data for tumor model L1210 Leukemia (intraperitoneal) in B6D2F1 (BDF1) mice
Conditions: endpoint: mean survival time, higher = longer survival
Method in brief: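 Mice bearing the transplanted tumor received compound or vehicle. Survival of the treated group was divided by that of the vehicle-treated control group to give the ratio.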

[1] = dose: 25.0 mg/kg/injection, schedule: Q04DX002 (ip), vehicle: Klucel (hydroxypropylcellulose) (HPC)
[2] = dose: 100.0 mg/kg/injection, schedule: Q04DX003 (ip), vehicle: saline with Tween-80
[3] = dose: 200.0 mg/kg/injection, schedule: Q04DX003 (ip), vehicle: saline with Tween-80
[4] = dose: 400.0 mg/kg/injection, schedule: Q04DX003 (ip), vehicle: saline with Tween-80
[5] = dose: 100.0 mg/kg/injection, schedule: Q04DX002 (ip), vehicle: Klucel (hydroxypropylcellulose) (HPC)
[6] = dose: 100.0 mg/kg/injection, schedule: Q01DX001 (ip), vehicle: saline
[7] = dose: 200.0 mg/kg/injection, schedule: Q01DX001 (ip), vehicle: saline
[8] = dose: 400.0 mg/kg/injection, schedule: Q01DX001 (ip), vehicle: saline
[9] = dose: 100.0 mg/kg/injection, schedule: Q01DX009 (ip), vehicle: Klucel (hydroxypropylcellulose) (HPC)
[10] = dose: 200.0 mg/kg/injection, schedule: Q01DX009 (ip), vehicle: Klucel (hydroxypropylcellulose) (HPC)
[11] = dose: 50.0 mg/kg/injection, schedule: Q01DX009 (ip), vehicle: saline with Tween-80
[12] = dose: 100.0 mg/kg/injection, schedule: Q01DX009 (ip), vehicle: saline with Tween-80
[13] = dose: 100.0 mg/kg/injection, schedule: Q04DX002 (ip), vehicle: saline with Tween-80
[14] = dose: 200.0 mg/kg/injection, schedule: Q01DX009 (ip), vehicle: saline with Tween-80
[15] = dose: 100.0 mg/kg/injection, schedule: Q04DX003 (ip), vehicle: Klucel (hydroxypropylcellulose) (HPC)
[16] = dose: 200.0 mg/kg/injection, schedule: Q04DX003 (ip), vehicle: Klucel (hydroxypropylcellulose) (HPC)

Measured: T/C

C[CH2][Pb]([CH2]C)([CH2]C)[O]C(=O)COc1ccccc1
inactive: dose: 0.75 mg/kg/injection, schedule: Q01DX009 (ip), vehicle: Klucel (hydroxypropylcellulose) (HPC) 98 % of control | dose: 0.75 mg/kg/injection, schedule: Q04DX003 (ip), vehicle: saline with Tween-80 96 % of control | dose: 1.5 mg/kg/injection, schedule: Q01DX009 (ip), vehicle: Klucel (hydroxypropylcellulose) (HPC) 95 % of control | dose: 1.5 mg/kg/injection, schedule: Q04DX003 (ip), vehicle: saline with Tween-80 95 % of control | dose: 3.0 mg/kg/injection, schedule: Q01DX009 (ip), vehicle: Klucel (hydroxypropylcellulose) (HPC) 106 % of control | dose: 3.0 mg/kg/injection, schedule: Q04DX003 (ip), vehicle: saline with Tween-80 101 % of control | dose: 6.0 mg/kg/injection, schedule: Q01DX009 (ip), vehicle: Klucel (hydroxypropylcellulose) (HPC) 102 % of control | dose: 6.0 mg/kg/injection, schedule: Q04DX003 (ip), vehicle: saline with Tween-80 91 % of control | dose: 12.0 mg/kg/injection, schedule: Q04DX003 (ip), vehicle: saline with Tween-80 101 % of control | dose: 12.5 mg/kg/injection, schedule: Q04DX002 (ip), vehicle: Klucel (hydroxypropylcellulose) (HPC) 103 % of control | [1] 97 % of control

OC1C2(CCCCC2)CNC12C=CCCC2 (stereo not given)
inactive: dose: 75.0 mg/kg/injection, schedule: Q01DX001 (ip), vehicle: saline 98 % of control | dose: 150.0 mg/kg/injection, schedule: Q01DX001 (ip), vehicle: saline 97 % of control

Nc1ncnc2c1ncn2CCCN1C(=O)c2ccccc2C1=O
inactive: [2] 96 % of control | [3] 93 % of control | [4] 89 % of control

COC(=O)c1cc2c(cc1[N+](=O)[O-])OCO2
inactive: [5] 114 % of control | dose: 200.0 mg/kg/injection, schedule: Q04DX002 (ip), vehicle: Klucel (hydroxypropylcellulose) (HPC) 114 % of control | dose: 400.0 mg/kg/injection, schedule: Q04DX002 (ip), vehicle: Klucel (hydroxypropylcellulose) (HPC) 95 % of control

c1ccc2c(c1)C[N+]1(Cc3ccccc3-2)CC12CCCCC2
inactive: dose: 12.0 mg/kg/injection, schedule: Q01DX009 (ip), vehicle: saline 110 % of control | dose: 25.0 mg/kg/injection, schedule: Q01DX009 (ip), vehicle: saline 104 % of control | dose: 50.0 mg/kg/injection, schedule: Q01DX009 (ip), vehicle: saline 100 % of control

NC(CSS(=O)(=O)O)=NCCc1ccc(O)cc1
inactive: [1] 110 % of control | [5] 90 % of control and 91 % of control

NC(CCl)=NCc1ccccn1
inactive: dose: 100.0 mg/kg/injection, schedule: Q04DX002 (ip), vehicle: saline 96 % of control

CCN(CC)C(=S)S.[Cu+2]
inactive: [6] 105 % of control | [7] 102 % of control | [8] 105 % of control

COC(=O)c1ccc(C)nc1OC/C=C(\C)CCC=C(C)C
inactive: [6] 104 % of control | dose: 100.0 mg/kg/injection, schedule: Q01DX009 (ip), vehicle: saline 110 % of control | [7] 99 % of control | dose: 200.0 mg/kg/injection, schedule: Q01DX009 (ip), vehicle: saline 102 % of control | [8] 90 % of control | dose: 400.0 mg/kg/injection, schedule: Q01DX009 (ip), vehicle: saline 106 % of control

Cc1ccc(OC/C=C/CS(=O)(=O)c2ccc(C)cc2)cc1
inactive: dose: 50.0 mg/kg/injection, schedule: Q01DX009 (ip), vehicle: Klucel (hydroxypropylcellulose) (HPC) 100 % of control | dose: 75.0 mg/kg/injection, schedule: Q01DX001 (ip), vehicle: Klucel (hydroxypropylcellulose) (HPC) 93 % of control | [9] 98 % of control | dose: 150.0 mg/kg/injection, schedule: Q01DX001 (ip), vehicle: Klucel (hydroxypropylcellulose) (HPC) 98 % of control | [10] 98 % of control | dose: 300.0 mg/kg/injection, schedule: Q01DX001 (ip), vehicle: Klucel (hydroxypropylcellulose) (HPC) 95 % of control

COC(=O)c1[nH]cnc1/N=N/Nc1ccc(Cl)c(Cl)c1
inactive: dose: 50.0 mg/kg/injection, schedule: Q01DX001 (ip), vehicle: other 94 % of control | dose: 100.0 mg/kg/injection, schedule: Q01DX001 (ip), vehicle: other 95 % of control and 103 % of control | dose: 200.0 mg/kg/injection, schedule: Q01DX001 (ip), vehicle: other 105 % of control and 110 % of control | dose: 400.0 mg/kg/injection, schedule: Q01DX001 (ip), vehicle: other 97 % of control and 100 % of control

O=[N+]([O-])c1c(Cl)cc(Cl)c([N+](=O)[O-])c1-c1ccccc1
inactive: dose: 100.0 mg/kg/injection, schedule: Q01DX001 (ip), vehicle: carboxymethylcellulose (CMC) 96 % of control | dose: 200.0 mg/kg/injection, schedule: Q01DX001 (ip), vehicle: carboxymethylcellulose (CMC) 96 % of control | dose: 400.0 mg/kg/injection, schedule: Q01DX001 (ip), vehicle: carboxymethylcellulose (CMC) 107 % of control

CCOC(=O)CCCC(=O)N(CC(=O)OCC)Cc1ccccc1
inactive: [2] 102 % of control | [3] 93 % of control | [4] 90 % of control

FC(F)(F)c1cccc(NC2=NCCS2)c1
inactive: [11] 91 % of control | [12] 98 % of control | [13] 97 % of control | dose: 200.0 mg/kg/injection, schedule: Q04DX002 (ip), vehicle: saline with Tween-80 115 % of control

c1ccc2c(c1)O[As](O[As]1Oc3ccccc3O1)O2
inactive: dose: 1.56 mg/kg/injection, schedule: Q04DX003 (ip), vehicle: saline 104 % of control | dose: 3.12 mg/kg/injection, schedule: Q01DX009 (ip), vehicle: saline with Tween-80 108 % of control | dose: 3.12 mg/kg/injection, schedule: Q04DX003 (ip), vehicle: saline 106 % of control | dose: 6.25 mg/kg/injection, schedule: Q01DX009 (ip), vehicle: saline with Tween-80 116 % of control | dose: 6.25 mg/kg/injection, schedule: Q04DX003 (ip), vehicle: saline 115 % of control | dose: 12.5 mg/kg/injection, schedule: Q01DX009 (ip), vehicle: saline with Tween-80 122 % of control | dose: 12.5 mg/kg/injection, schedule: Q04DX003 (ip), vehicle: saline with Tween-80 96 % of control

O=C1OC(=O)c2ccc(S)c3cccc1c23
inactive: [11] 96 % of control | [12] 102 % of control | [14] 94 % of control and 101 % of control

CCOC(=O)C(C)C(OCC)OCC (stereo not given)
inactive: [9] 96 % of control | [15] 90 % of control | [10] 104 % of control | [16] 103 % of control | dose: 400.0 mg/kg/injection, schedule: Q01DX009 (ip), vehicle: Klucel (hydroxypropylcellulose) (HPC) 89 % of control | dose: 400.0 mg/kg/injection, schedule: Q04DX003 (ip), vehicle: Klucel (hydroxypropylcellulose) (HPC) 107 % of control

O=C(O)CSC(=S)c1ccccc1
inactive: dose: 25.0 mg/kg/injection, schedule: Q04DX002 (ip), vehicle: saline with Tween-80 103 % of control | dose: 50.0 mg/kg/injection, schedule: Q04DX002 (ip), vehicle: saline with Tween-80 103 % of control | dose: 50.0 mg/kg/injection, schedule: Q04DX003 (ip), vehicle: Klucel (hydroxypropylcellulose) (HPC) 108 % of control | [12] 93 % of control | [13] 118 % of control | [15] 97 % of control | dose: 100.0 mg/kg/injection, schedule: Q04DX003 (ip), vehicle: saline 97 % of control | [14] 93 % of control | [16] 105 % of control | dose: 200.0 mg/kg/injection, schedule: Q04DX003 (ip), vehicle: saline 100 % of control | dose: 400.0 mg/kg/injection, schedule: Q04DX003 (ip), vehicle: saline 97 % of control

OCC1OC(n2ncc3c(Cl)ccnc32)C(O)C1O (stereo not given)
inactive: dose: 50.0 mg/kg/injection, schedule: Q01DX005 (ip), vehicle: other 91 % of control

COc1cccc(N=Nc2c(N)nc(N)nc2N)c1
inactive: dose: 75.0 mg/kg/injection, schedule: Q01DX001 (ip), vehicle: carboxymethylcellulose (CMC) 104 % of control | dose: 150.0 mg/kg/injection, schedule: Q01DX001 (ip), vehicle: carboxymethylcellulose (CMC) 100 % of control | dose: 300.0 mg/kg/injection, schedule: Q01DX001 (ip), vehicle: carboxymethylcellulose (CMC) 109 % of control
